Earlier results, collected in article PMC11604869, “Stereoselective block of the hERG potassium channel by the Class Ia antiarrhythmic drug disopyramide” (Cellular and Molecular Life Sciences: CMLS, 2024).

Experiments:
rat ventricular ITO = system: rat ventricular ITO; parameters: method as in PMID 11327018; settings: 100 μM
[1] = parameters: method as in PMID 6740739
rabbit ventricular ITO = system: rabbit ventricular ITO; parameters: method as in PMID 9550298; settings: 30 μM
[2] = plasma
[3] = system: rate corrected QT interval; parameters: method as in PMID 2439842; settings: for effect on rate corrected QT interval: acute infusion, healthy human volunteers
hERG = system: hERG; parameters: method as in PMID 12466236

## CC(C)N(CCC(C(N)=O)(c1ccccc1)c1ccccn1)C(C)C (racemic) [racemic disopyramide, 4-(diisopropylamino)−2-phenyl-2-(pyridin-2-yl) butanamide]
Rat ventricular ITO
  effect on rat ventricular ITO: no effect
[1]
  therapeutic total plasma levels: 6 to 8 µM
Rabbit ventricular ITO
  reduction of rabbit ventricular ITO amplitude: ~ 33%

## CC(C)N(CC[C@](C(N)=O)(c1ccccc1)c1ccccn1)C(C)C [S(+) disopyramide]
[2]
  unbound fractions: 0.208
[3]
  effect on rate corrected QT interval: prolongation of the rate corrected QT interval
[3]; compared with R(−) disopyramide
  negative inotropic effect in humans: smaller negative inotropic effect

## CCCCN1CCCC[C@H]1C(=O)Nc1c(C)cccc1C [levobupivacaine]
hERG
  potency of IhERG inhibition relative to dextrobupivacaine: twofold

## CC(C)N(CC[C@@](C(N)=O)(c1ccccc1)c1ccccn1)C(C)C [R(−) disopyramide]
[2]
  unbound fractions: 0.338
[3]
  effect on rate corrected QT interval: not
